# Data taken from US8895504B2, “Amylin derivatives” (priority 2008, dated 2014).
# *1 amine or outer side, *2 acyl side, *3 side chain or, on linkers, in order; H or OH if unused. Where a SMILES comes first, the peptide text is derived from it. Bridges are numbered along the chain shown (N, C = ends). The star is where a group is joined. C20 diacid = O=C(O)CCCCCCCCCCCCCCCCCCC(=O)*; C18 diacid = O=C(O)CCCCCCCCCCCCCCCCC(=O)*; PEG8 = NCCOCCOCCOCCOCCOCCOCCOCCOCCC(=O)O; γGlu = O=C(O)[C@H](CCC(=O)[*:2])N[*:1]; AEEA = NCCOCCOCC(=O)O
# Biological target: T1, Amylin 3(a) receptor (human calcitonin receptor (CTa) and RAMP-3) (Homo sapiens, UniProt O60896+P30988)
# T1 construct: expressed in transfected cells; host or cells: BHK570 cells, stably transfected with a CRE-luciferase reporter
# Assay: Luciferase assay (III), BHK Amylin 3(a)//CRE-luc cells
# Format: cell-based
# Settings: BHK cells with Amylin 3(a) receptor and CRE luciferase reporter, 4 hours incubation; read-out: Potency Luciferase
# Outline: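 BHK570 cells stably expressing CTa, RAMP-3 and a CRE-luciferase reporter, seeded at about 20,000 cells/well and grown overnight. Cells were exposed to standard or sample for 4 h at 37° C in phenol red-free DMEM with 10% FBS and 10 mM Hepes, pH 7,4. Luminescence was read after 30 min LucLite at room temperature.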
# T1 sequence (O60896 24-148): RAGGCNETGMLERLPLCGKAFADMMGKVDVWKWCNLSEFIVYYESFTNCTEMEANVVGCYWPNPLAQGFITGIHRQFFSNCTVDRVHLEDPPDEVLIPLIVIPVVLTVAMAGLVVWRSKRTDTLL
# T1 sequence (P30988 25-474): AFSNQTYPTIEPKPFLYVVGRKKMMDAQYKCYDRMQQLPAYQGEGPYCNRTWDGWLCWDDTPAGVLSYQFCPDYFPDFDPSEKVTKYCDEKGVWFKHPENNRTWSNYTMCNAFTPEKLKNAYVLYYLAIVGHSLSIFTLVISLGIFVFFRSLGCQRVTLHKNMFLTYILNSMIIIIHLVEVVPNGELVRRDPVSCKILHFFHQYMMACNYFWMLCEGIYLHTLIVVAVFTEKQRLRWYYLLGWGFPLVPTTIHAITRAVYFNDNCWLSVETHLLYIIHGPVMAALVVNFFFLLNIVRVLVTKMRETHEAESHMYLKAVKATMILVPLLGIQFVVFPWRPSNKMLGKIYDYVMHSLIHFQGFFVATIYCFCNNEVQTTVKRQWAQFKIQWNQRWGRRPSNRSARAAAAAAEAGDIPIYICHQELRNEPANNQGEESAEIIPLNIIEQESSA
row,EC50,SMILES
1,0.08 nM,"CC[C@H](C)[C@H](NC(=O)[C@@H]1CCCN1C(=O)CNC(=O)[C@H](Cc1ccccc1)NC(=O)[C@H](CC(N)=O)NC(=O)[C@H](CC(N)=O)NC(=O)[C@H](CO)NC(=O)[C@H](CO)NC(=O)[C@H](Cc1c[nH]cn1)NC(=O)[C@H](Cc1c[nH]cn1)NC(=O)[C@H](CC(C)C)NC(=O)[C@H](Cc1ccccc1)NC(=O)[C@H](CC(N)=O)NC(=O)[C@H](C)NC(=O)[C@H](CC(C)C)NC(=O)[C@H](CCCNC(=N)N)NC(=O)[C@H](CCC(N)=O)NC(=O)[C@@H](NC(=O)[C@H](C)NC(=O)[C@@H]1CSSC[C@H](NC(=O)[C@H](CCCNC(=N)N)NC(=O)CCOCCOCCOCCOCCOCCOCCOCCOCCNC(=O)CC[C@H](NC(=O)CCCCCCCCCCCCCCCCC(=O)O)C(=O)O)C(=O)N[C@@H](CC(N)=O)C(=O)N[C@@H]([C@@H](C)O)C(=O)N[C@@H](C)C(=O)N[C@@H]([C@@H](C)O)C(=O)N1)[C@@H](C)O)C(=O)N[C@@H](CC(C)C)C(=O)N1CCC[C@H]1C(=O)N1CCC[C@H]1C(=O)N[C@H](C(=O)N[C@@H](CC(N)=O)C(=O)N[C@H](C(=O)NCC(=O)N[C@@H](CO)C(=O)N[C@@H](CC(N)=O)C(=O)N[C@H](C(=O)N[C@@H](Cc1ccc(O)cc1)C(N)=O)[C@@H](C)O)C(C)C)[C@@H](C)O [Example 52, N-alpha-[3-(2-{2-[2-(2-{2-[2-(2-{2-[(S)-4-Carboxy-4-(17-carboxyheptadecanoylamino)butyrylamino]ethoxy}ethoxy)ethoxy]ethoxy}ethoxy)ethoxy]ethoxy}ethoxy)propionylamino][Arg1,His17]-pramlintide] ({C18 diacid-γGlu-PEG8}-RCNTATCATQRLANFLHHSSNNFGPILPPTNVGSNTY-NH2; disulfide 2-7)"
2,0.08 nM,"CC[C@H](C)[C@H](NC(=O)[C@@H]1CCCN1C(=O)CNC(=O)[C@H](Cc1ccccc1)NC(=O)[C@H](CC(N)=O)NC(=O)[C@H](CC(N)=O)NC(=O)[C@H](CO)NC(=O)[C@H](CO)NC(=O)[C@H](Cc1c[nH]cn1)NC(=O)[C@H](C)NC(=O)[C@H](CC(C)C)NC(=O)[C@H](Cc1ccccc1)NC(=O)[C@H](CC(N)=O)NC(=O)[C@H](C)NC(=O)[C@H](CC(C)C)NC(=O)[C@H](CCCNC(=N)N)NC(=O)[C@H](CCC(N)=O)NC(=O)[C@@H](NC(=O)[C@H](C)NC(=O)[C@@H]1CSSC[C@H](NC(=O)[C@H](CCCCN)NC(=O)[C@H](CCCNC(=N)N)NC(=O)COCCOCCNC(=O)CC[C@H](NC(=O)CCCCCCCCCCCCCCCCCCC(=O)O)C(=O)O)C(=O)N[C@@H](CC(N)=O)C(=O)N[C@@H]([C@@H](C)O)C(=O)N[C@@H](C)C(=O)N[C@@H]([C@@H](C)O)C(=O)N1)[C@@H](C)O)C(=O)N[C@@H](CC(C)C)C(=O)N1CCC[C@H]1C(=O)N1CCC[C@H]1C(=O)N[C@H](C(=O)N[C@@H](CC(N)=O)C(=O)N[C@H](C(=O)NCC(=O)N[C@@H](CO)C(=O)N[C@@H](CC(N)=O)C(=O)N[C@H](C(=O)N[C@@H](Cc1ccc(O)cc1)C(N)=O)[C@@H](C)O)C(C)C)[C@@H](C)O [Example 24, N-alpha-[2-(2-{2-[4-(S)-Carboxy-4-(19-carboxynonadecanoylamino)butyrylamino]ethoxy}ethoxy)acetyl]-Arg-[Ala17]-pramlintide] ({C20 diacid-γGlu-AEEA}-RKCNTATCATQRLANFLAHSSNNFGPILPPTNVGSNTY-NH2; disulfide 3-8)"
3,0.1 nM,"CC[C@H](C)[C@H](NC(=O)[C@@H]1CCCN1C(=O)[C@H](CCC(=O)O)NC(=O)[C@H](Cc1ccccc1)NC(=O)[C@H](CC(N)=O)NC(=O)[C@H](CC(N)=O)NC(=O)[C@H](CO)NC(=O)[C@H](CO)NC(=O)[C@H](Cc1c[nH]cn1)NC(=O)[C@H](Cc1c[nH]cn1)NC(=O)[C@H](CC(C)C)NC(=O)[C@H](Cc1ccccc1)NC(=O)[C@H](CC(N)=O)NC(=O)[C@H](C)NC(=O)[C@H](CC(C)C)NC(=O)[C@H](CCCNC(=N)N)NC(=O)[C@H](CCC(N)=O)NC(=O)[C@@H](NC(=O)[C@H](C)NC(=O)[C@@H]1CSSC[C@H](NC(=O)CC[C@H](NC(=O)CCCCCCCCCCCCCCCCCCC(=O)O)C(=O)O)C(=O)N[C@@H](CC(N)=O)C(=O)N[C@@H]([C@@H](C)O)C(=O)N[C@@H](C)C(=O)N[C@@H]([C@@H](C)O)C(=O)N1)[C@@H](C)O)C(=O)N[C@@H](CC(C)C)C(=O)N1CCC[C@H]1C(=O)N1CCC[C@H]1C(=O)N[C@H](C(=O)N[C@@H](CC(N)=O)C(=O)N[C@H](C(=O)NCC(=O)N[C@@H](CO)C(=O)N[C@@H](CC(N)=O)C(=O)N[C@H](C(=O)N[C@@H](Cc1ccc(O)cc1)C(N)=O)[C@@H](C)O)C(C)C)[C@@H](C)O [Example 44, N-alpha-[(S)-4-Carboxy-4-(19-carboxynonadecanoylamino)butyryl]-[His17,Glu24]-pramlintide (2-37)] ({C20 diacid-γGlu}-CNTATCATQRLANFLHHSSNNFEPILPPTNVGSNTY-NH2; disulfide 1-6)"
4,0.1 nM,"CC[C@H](C)[C@H](NC(=O)[C@@H]1CCCN1C(=O)CNC(=O)[C@H](Cc1ccccc1)NC(=O)[C@H](CC(N)=O)NC(=O)[C@H](CC(N)=O)NC(=O)[C@H](CO)NC(=O)[C@H](CO)NC(=O)[C@H](Cc1c[nH]cn1)NC(=O)[C@H](Cc1c[nH]cn1)NC(=O)[C@H](CC(C)C)NC(=O)[C@H](Cc1ccccc1)NC(=O)[C@H](CC(N)=O)NC(=O)[C@H](C)NC(=O)[C@H](CC(C)C)NC(=O)[C@H](CCCNC(=N)N)NC(=O)[C@H](CCC(N)=O)NC(=O)[C@@H](NC(=O)[C@H](C)NC(=O)[C@@H]1CSSC[C@H](NC(=O)[C@H](Cc2c[nH]cn2)NC(=O)[C@H](CCCNC(=N)N)NC(=O)[C@H](Cc2c[nH]cn2)NC(=O)[C@H](CCC(=O)O)NC(=O)CC[C@H](NC(=O)CCCCCCCCCCCCCCCCCCC(=O)O)C(=O)O)C(=O)N[C@@H](CC(N)=O)C(=O)N[C@@H]([C@@H](C)O)C(=O)N[C@@H](C)C(=O)N[C@@H]([C@@H](C)O)C(=O)N1)[C@@H](C)O)C(=O)N[C@@H](CC(C)C)C(=O)N1CCC[C@H]1C(=O)N1CCC[C@H]1C(=O)N[C@H](C(=O)N[C@@H](CC(N)=O)C(=O)N[C@H](C(=O)NCC(=O)N[C@@H](CO)C(=O)N[C@@H](CC(N)=O)C(=O)N[C@H](C(=O)N[C@@H](Cc1ccc(O)cc1)C(N)=O)[C@@H](C)O)C(C)C)[C@@H](C)O [Example 66, N-alpha-[(S)-4-Carboxy-4-(19-carboxynonadecanoylamino)butyryl]-Glu-His-Arg-[His1,His17]-pramlintide] ({C20 diacid-γGlu}-EHRHCNTATCATQRLANFLHHSSNNFGPILPPTNVGSNTY-NH2; disulfide 5-10)"
